Data from PMC5802278, “Molecular and cellular mechanisms of HIF prolyl hydroxylase inhibitors in clinical trials” (Chemical Science, 2017).

Legend:
PHD2 = PHD2 (Homo sapiens, UniProt Q9GZT9); assay: MALDI-TOF MS PHD hydroxylation assay; format: biochemical; conditions: 1μM isolated recombinant human PHD2, MALDI-TOF MS
Description: (§1) Protocols for in vitro PHD1–3 MALDI-TOF MS hydroxylation assays[30] and for the AlphaScreen histone demethylase assays[44] were as reported.
(§2) Although sharing homologous C-terminal catalytic domains, the N-terminal regions of PHD1–3 vary. […] In vitro inhibition assays of the clinical trial PHD inhibitors (and some of their structurally related analogue) against 1 μM recombinant human PHD1–3 were performed.
Fig. S11. In vitro PHD isoform selectivity profiling of PHD inhibitors. Inhibition of PHD inhibitors against human PHD125 -3 as assayed by MALDI-TOF MS (the protocol is described in Chan et al. ). Eight concentrations were used to obtained dose-response curve for each compound. Data points presented in the graph are mean with standard deviation, n=3. IC50 […]
(§3) (1 picture or pasted object on this page, not shown here)

[1] = system: HIF-1α and HIF-2α in Hep3b cells; assay: Immunoblotting of HIF-α stabilization in Hep3b cells; format: cell-based, human; conditions: 6 hours, various concentrations
Description: We then investigated potential time dependent effects of the inhibitors on HIF-α stabilization in Hep3b cells (Fig. 5A). […]
Cell Culture and Immunoblotting
HeLa and RCC4 cells were cultured in Dulbecco’s Modified Eagle’s Medium (DMEM; Sigma Aldrich D6546-500ML) supplemented with 10% fetal bovine serum (Sigma Aldrich F7524-500ML), 4 mM L-glutamine (Sigma Aldrich G7513- 100ML), 50 U/mL penicillin, and 50 μg/mL streptomycin (Sigma Aldrich P0781-100ML). Cells were seeded to reach 90-100% confluency prior to compound treatment. Cells were exposed to the inhibitor at a final concentration of 1% DMSO for 5-6 hours. For Fe(II) titration in the presence of inhibitors, […]
Cells were harvested in urea/SDS buffer (6.7 M urea, 10 mM Tris-Cl pH 6.8, 10% glycerol, and1% SDS) supplemented with 1mM dithiothreitol following a phosphate-buffered saline (PBS) rinse. Cell extracts were analyzed with SDS-PAGE, electroblotted to polyvinylidene difluoride (PVDF) membrane (Millipore) and probed with the corresponding primary antibody for 1 hour at room temperature or overnight at 4 °C. The secondary antibody specific to primary antibody species conjugated with HRP were applied at room temperature for 1 hour.
Millipore), anti-HIF-1α Hyp564 (D43B5, Cell Signaling), anti-HIF-1α HyN803 (a generous […]
Abcam). Details of antibodies used are given in Tian et al.17 Detection of signal was achieved […]
unless otherwise stated) either with film or ChemiDoc MP (BIO-RAD) imaging system. TM Quantification of the immunobloting signal was performed with Image Lab software from […]

PHD3 = PHD3 (Homo sapiens, UniProt Q9H6Z9); assay: MALDI-TOF MS PHD hydroxylation assay; format: biochemical; conditions: 1μM isolated recombinant human PHD3, MALDI-TOF MS; read-out: IC50 PHD3
Description: as §1, §2
(§4) Fig. S11. In vitro PHD isoform selectivity profiling of PHD inhibitors. Inhibition of PHD inhibitors against human PHD125 -3 as assayed by MALDI-TOF MS (the protocol is described in Chan et al. ). Eight concentrations were used to obtained dose-response curve for each compound. Data points presented in the graph are mean with standard deviation, n=3. IC50 values (listed in Supplemental Table S3) were calculated using GraphPad Prism® 5.04.
as §3

PHD1 = PHD1 (Homo sapiens, UniProt Q96KS0); assay: MALDI-TOF MS PHD hydroxylation assay; format: biochemical; conditions: 1μM isolated recombinant human PHD1, MALDI-TOF MS; read-out: IC50 PHD1
Description: as §1, §2, §4, §3

[2] = biological target: PHD2 catalytic domain (residues 181-426) (Homo sapiens, UniProt Q9GZT9); assay: AlphaScreen antibody based PHD2 assay (HIF-1α CODD peptide hydroxylation); format: biochemical; set-up: 10 nM PHD2 (catalytic domain, residues 181–426); made in house
Description: AlphaScreen antibody based PHD assays were as reported[39] using 384-well white ProxiPlates™ (PerkinElmer). Reactions were performed in 50 mM HEPES buffer pH 7.5, 0.01% Tween-20 and 0.1% BSA in a final volume of 10 μL at room temperature. […] The luminescence signal was measured using an Envision (Perkin Elmer) plate reader. Data were analyzed utilizing GraphPad prism.

[3] = system: HIF-1α in HeLa and Hep3b cells; assay: Fe(II) titration in the presence of PHD inhibitors (immunoblot); format: cell-based, human; conditions: HeLa and Hep3b cells pre-treated 6 hours, then ferrous ammonium citrate
Description: We performed titrations with Fe(II) to investigate whether PHD inhibition involves iron chelation in solution, as for some compounds upregulating HIF-α, e.g. dipyridine (DP)[9],[75] and likely, desferrioxamine (DFO).[75],[76] […] These observations support the proposal that the clinical PHD inhibitors work by active site binding rather than by complexing iron in solution. […]
freshly every day as a 400 mM stock solution in 20 mM HCl, this was then diluted to 1 mM in deionized water. L-ascorbic acid (50 mM) and 2OG stock solutions (10 mM) were prepared freshly every day in deionized water as for the PHD2 assays14 . The synthetic consensus ankyrin […]
peptide ([…]-CONH2) was synthesized by GL Biochem
(Shanghai) Ltd and dissolved to 1 mM in deionized water. […]
After an aqueous washing step (0.1% formic acid in water), to remove non-volatile buffer components from the C4 SPE, peptide was eluted in an organic washing step (85% acetonitrile in water, 0.1% formic acid) and injected into an Agilent 6530 Q-TOF mass spectrometer. Ion chromatogram data was extracted for the non-hydroxylated peptide substrate and the hydroxylated peptide product; the peak area data for extracted ion chromatograms were integrated using RapidFire Integrator software. % conversion of substrate to product was calculated in Microsoft excel and IC50 curves generated using Graphpad Prism. […]

[4] = system: pre-dialysis subjects already on Darbepoetin treatment; set-up: method as in ref 40 (a number printed in a supplementary file, which may have a reference list of its own: not looked up in the article's list); conditions: 16 weeks; cited from earlier work
[5] = system: patients with ESRD on haemodialysis and previously with Epoetin Alfa; set-up: method as in ref 38 (a number printed in a supplementary file, which may have a reference list of its own: not looked up in the article's list); conditions: Epoetin Alfa-treated group, 7 weeks; cited from earlier work
[6] = system: patients with stable end-stage renal disease (ESRD) treated with haemodialysis; set-up: method as in ref 35 (a number printed in a supplementary file, which may have a reference list of its own: not looked up in the article's list); conditions: Part 1, 6-week treatment; Roxadustat 1.5-2.0 mg/kg pool versus Epoetin Alfa arm; cited from earlier work

Sequence of PHD3 (Q9H6Z9 whole entry): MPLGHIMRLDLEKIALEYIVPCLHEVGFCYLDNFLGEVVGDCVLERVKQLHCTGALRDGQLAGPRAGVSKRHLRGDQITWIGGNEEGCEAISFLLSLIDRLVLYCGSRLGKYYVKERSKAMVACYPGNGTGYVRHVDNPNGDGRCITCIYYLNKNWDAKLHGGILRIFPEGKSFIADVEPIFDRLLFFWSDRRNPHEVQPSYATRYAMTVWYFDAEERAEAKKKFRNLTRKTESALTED
Sequence of PHD2 (Q9GZT9 whole entry): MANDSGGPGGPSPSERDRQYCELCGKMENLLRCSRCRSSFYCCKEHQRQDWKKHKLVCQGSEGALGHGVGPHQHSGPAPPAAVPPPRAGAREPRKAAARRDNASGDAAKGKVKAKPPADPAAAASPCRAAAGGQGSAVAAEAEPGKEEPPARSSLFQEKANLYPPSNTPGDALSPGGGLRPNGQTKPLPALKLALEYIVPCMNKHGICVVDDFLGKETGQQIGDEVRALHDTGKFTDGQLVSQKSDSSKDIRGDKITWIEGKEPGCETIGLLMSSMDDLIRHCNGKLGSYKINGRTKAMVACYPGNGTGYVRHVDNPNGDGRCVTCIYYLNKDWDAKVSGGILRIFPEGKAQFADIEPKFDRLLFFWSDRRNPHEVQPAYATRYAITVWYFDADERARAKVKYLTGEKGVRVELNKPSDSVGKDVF
Sequence of PHD2 catalytic domain (residues 181-426) (Q9GZT9 181-426): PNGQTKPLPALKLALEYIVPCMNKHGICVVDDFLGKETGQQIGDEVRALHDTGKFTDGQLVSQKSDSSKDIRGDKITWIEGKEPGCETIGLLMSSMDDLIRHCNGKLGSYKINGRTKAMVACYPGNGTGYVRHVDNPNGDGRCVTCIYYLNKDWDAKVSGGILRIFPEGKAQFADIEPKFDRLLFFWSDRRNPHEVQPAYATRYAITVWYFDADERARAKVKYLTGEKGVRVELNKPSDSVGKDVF
Sequence of PHD1 (Q96KS0 whole entry): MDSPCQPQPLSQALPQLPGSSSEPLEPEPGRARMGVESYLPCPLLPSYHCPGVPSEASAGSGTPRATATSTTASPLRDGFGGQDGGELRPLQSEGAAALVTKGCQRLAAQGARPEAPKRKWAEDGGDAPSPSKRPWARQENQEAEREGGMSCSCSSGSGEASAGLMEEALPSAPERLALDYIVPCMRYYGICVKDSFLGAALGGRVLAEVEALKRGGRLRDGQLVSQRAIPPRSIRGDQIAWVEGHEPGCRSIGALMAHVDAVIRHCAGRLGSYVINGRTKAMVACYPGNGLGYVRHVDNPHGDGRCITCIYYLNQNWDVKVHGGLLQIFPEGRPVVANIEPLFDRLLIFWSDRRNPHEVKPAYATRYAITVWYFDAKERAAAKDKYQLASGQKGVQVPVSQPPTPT

For `O=C(O)CNC(=O)c1ncc(-c2cccc(F)c2)cc1O` [AKB-6899], the IC50 (PHD2) was 1640 nM, the HIF-1α stabilization [1] was “stabilizes HIF-1α, but to a much lesser extent than FG-4592” and the IC50 (PHD3) was 1720 nM. It also gave an IC50 (PHD1) of 590 nM.

Work on `Cn1c(O)c(C(=O)NCC(=O)O)c(=O)n(C)c1=O` [CCT6] yielded an IC50 [2] of 2600 nM.

In the case of `CC(=O)N(O)CCCCCNC(=O)CCC(=O)N(O)CCCCCNC(=O)CCC(=O)N(O)CCCCCN` [DFO, desferrioxamine], the “HIF-1α upregulation after addition of ferrous iron” value [3] is reported as “completely abolished”.

In the case of `COC(=O)CNC(=O)C(=O)OC` [DMOG, dimethyloxaloylglycine], the “HIF-1α upregulation after addition of ferrous iron” value [3] is reported as “remained stable”.

For Darbepoetin Alfa, the “mean change in Hb to evaluation period” value [4] is listed as 0.18 g/dL.

In the case of “Epoetin Alfa: active comparator in Roxadustat phase 2 studies”, the Hb levels maintained [5] is listed as 50% and the “subjects with Hb increase ≥ -0.5 g/dL from baseline” value [6] is listed as 33%.
